{"source": "patent US9314509B2", "about": "“Pharmaceutical compositions of melanocortin receptor ligands” (Ipsen Pharma S.A.S., priority 2009, dated 2016)", "experiment": "Solubility of pamoate salt, HPLC determination of concentration in supernatant", "type": "physicochemical", "experimental": "The solubility of pamoate salt of Example 1 was determined by mixing the peptide in water or PBS, followed by HPLC determination of the concentration in the supernatant, and the results are shown in Table 4B.", "note": "Counter-ions that a name gives are not always drawn. Like-named read-outs stand apart in the source and are kept apart here."}
{"smiles": "CC(=O)N[C@@H](CCCNC(=N)N)C(=O)N[C@H]1CSSC[C@@H](C(N)=O)NC(=O)[C@H](Cc2c[nH]c3ccccc23)NC(=O)[C@H](CCCNC(=N)N)NC(=O)[C@@H](Cc2ccccc2)NC(=O)[C@H](Cc2c[nH]cn2)NC(=O)[C@@H](C)NC1=O", "note": "[Pamoate salt of Example 1 with Zn]", "values": [{"measurement": "solubility", "setting": "PBS, pH 7.4, read-out: Solubility in PBS, pH 7.4", "value": 120, "unit": "µg/mL"}, {"measurement": "solubility", "setting": "Water, pH 7.0, read-out: Solubility in Water, pH 7.0", "value": 50, "unit": "µg/mL"}]}
